pEC50: −log10 of the molar value. Read-outs that look alike come from different tables or passages of the source.
Columns and labels:
[1] = molecular target: T1, hGLP1R (Homo sapiens, UniProt P43220); assay: hGLP1R CreLuc assay in 0.5% and 100% plasma (HEK-293 CRE-luciferase reporter cells); type: cell-based; conditions: HEK-293 reporter cells
T1 construct: expressed in transfected cells; host or cells: HEK-293 CRE-luciferase reporter cells

[2] = molecular target: T2, hGIPR (Homo sapiens, UniProt P48546); assay: hGIPR CreLuc assay in 0.5% and 100% plasma (CHO CRE-luciferase reporter cells); type: cell-based
T2 construct: expressed in transfected cells; host or cells: CHO CRE-luciferase reporter cells
T2 sequence (P48546 22-466): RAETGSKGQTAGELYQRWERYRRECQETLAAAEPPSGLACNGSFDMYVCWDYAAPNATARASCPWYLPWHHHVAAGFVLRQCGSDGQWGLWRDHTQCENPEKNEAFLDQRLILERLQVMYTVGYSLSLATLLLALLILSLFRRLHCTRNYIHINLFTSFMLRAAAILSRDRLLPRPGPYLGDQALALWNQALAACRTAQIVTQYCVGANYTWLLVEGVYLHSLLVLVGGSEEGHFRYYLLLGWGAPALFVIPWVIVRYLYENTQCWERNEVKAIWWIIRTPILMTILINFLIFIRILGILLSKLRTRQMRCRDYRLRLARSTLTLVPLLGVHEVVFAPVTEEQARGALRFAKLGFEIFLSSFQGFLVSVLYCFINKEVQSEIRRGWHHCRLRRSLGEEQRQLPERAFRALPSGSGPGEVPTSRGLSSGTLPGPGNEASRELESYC

[3] = Solubility in 0.1 M phosphate buffer at pH 7; type: physicochemical; conditions: 0.1 M phosphate buffer at pH 7, 10 mg/mL final peptide concentration, shaking 2 hours at room temperature, peptides as TFA-salts, measured sample pH 6.5-7.0; for solubility: read-out: Solubility
[4] = 0.5% human plasma, read-out: hGLP1R 0.5% hP
[5] = 0.5% human plasma, read-out: hGIPR 0.5% hP

T1 sequence (P43220 24-463): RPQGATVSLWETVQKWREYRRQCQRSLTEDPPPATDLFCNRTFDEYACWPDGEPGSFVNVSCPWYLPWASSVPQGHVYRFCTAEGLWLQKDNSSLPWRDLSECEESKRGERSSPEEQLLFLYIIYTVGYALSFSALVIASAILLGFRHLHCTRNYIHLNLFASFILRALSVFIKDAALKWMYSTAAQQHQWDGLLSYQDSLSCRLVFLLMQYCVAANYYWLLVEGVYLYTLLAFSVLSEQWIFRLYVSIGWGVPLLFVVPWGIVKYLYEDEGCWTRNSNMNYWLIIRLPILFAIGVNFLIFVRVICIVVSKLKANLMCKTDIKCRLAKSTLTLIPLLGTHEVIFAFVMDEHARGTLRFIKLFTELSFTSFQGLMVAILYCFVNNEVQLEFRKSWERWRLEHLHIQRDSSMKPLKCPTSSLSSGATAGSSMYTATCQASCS

Row | pEC50 [1, 4] | pEC50 [2, 5] | solubility at 2 h [3] | solubility [3] | pEC50 ([1]; 100% human plasma, read-out: hGLP1R 100% hP) | pEC50 ([2]; 100% human plasma, read-out: hGIPR 100% hP) | SMILES
1 | 9.30 | 9.30 | 5000 µg/mL | – | – | – | CC[C@H](C)[C@H](NC(=O)[C@H](CC(C)C)NC(=O)[C@H](Cc1c[nH]cn1)NC(=O)[C@H](CCCNC(=N)N)NC(=O)[C@@H](NC(=O)[C@H](Cc1ccccc1)NC(=O)[C@H](CCC(=O)O)NC(=O)C(C)(C)NC(=O)[C@H](CCC(N)=O)NC(=O)[C@H](C)NC(=O)[C@H](CCC(=O)O)NC(=O)[C@H](CCC(=O)O)NC(=O)[C@H](CCC(=O)O)NC(=O)[C@H](CC(C)C)NC(=O)C(C)(C)NC(=O)[C@@H](NC(=O)[C@H](CO)NC(=O)[C@H](Cc1ccc(O)cc1)NC(=O)[C@H](CC(=O)O)NC(=O)[C@H](CO)NC(=O)[C@@H](NC(=O)[C@H](Cc1ccccc1)NC(=O)[C@@H](NC(=O)CNC(=O)[C@H](CCC(=O)O)NC(=O)C(C)(C)NC(=O)[C@@H](N)Cc1ccc(O)cc1)[C@@H](C)O)[C@@H](C)O)[C@@H](C)CC)C(C)C)C(=O)N[C@@H](CC(N)=O)C(=O)N[C@@H](CCCCNC(=O)COCCOCCNC(=O)COCCOCCNC(=O)CC[C@H](NC(=O)CCCCCCCCCCCCCCCCC(=O)O)C(=O)O)C(=O)NC(C)(C)C(=O)N[C@H](C(=O)N[C@@H](CCCNC(=N)N)C(=O)N[C@@H](CCC(N)=O)C(=O)N[C@@H](CCCNC(=N)N)C(=O)N[C@@H](Cc1ccc(O)cc1)C(N)=O)[C@@H](C)O [Compound 130, Y-Aib-E-G-T-F-T-S-D-Y-S-I-Aib-L-E-E-E-A-Q-Aib-E-F-V-R-H-L-I-N-K(1,3)-Aib-T-R-Q-R-Y-NH2.C18DA-gGlu-OEG-OEG(1,2)]
2 | 9.10 | 10.00 | – | 1100 µg/mL | – | – | CC[C@H](C)[C@H](NC(=O)[C@H](CC(C)C)NC(=O)[C@H](Cc1c[nH]cn1)NC(=O)[C@H](CCCNC(=N)N)NC(=O)[C@@H](NC(=O)[C@H](Cc1ccccc1)NC(=O)[C@H](C)NC(=O)C(C)(C)NC(=O)[C@H](CCC(N)=O)NC(=O)[C@H](C)NC(=O)[C@H](CCC(N)=O)NC(=O)[C@H](CCCCN)NC(=O)[C@H](CCC(=O)O)NC(=O)[C@H](CC(C)C)NC(=O)C(C)(C)NC(=O)[C@@H](NC(=O)[C@H](CO)NC(=O)[C@H](Cc1ccc(O)cc1)NC(=O)[C@H](CC(=O)O)NC(=O)[C@H](CO)NC(=O)[C@@H](NC(=O)[C@H](Cc1ccccc1)NC(=O)[C@@H](NC(=O)CNC(=O)[C@H](CCC(=O)O)NC(=O)C(C)(C)NC(=O)[C@@H](N)Cc1ccc(O)cc1)[C@@H](C)O)[C@@H](C)O)[C@@H](C)CC)C(C)C)C(=O)N[C@@H](CC(N)=O)C(=O)N[C@@H](CCCCNC(=O)[C@@H](N)CCCCNC(=O)CC[C@H](NC(=O)CC[C@H](NC(=O)CC[C@H](NC(=O)CC[C@H](NC(=O)CC[C@H](NC(=O)CCCCCCCCCCCCCCCCC(=O)O)C(=O)O)C(=O)O)C(=O)O)C(=O)O)C(=O)O)C(=O)NC(C)(C)C(=O)N[C@H](C(=O)N[C@@H](CCCNC(=N)N)C(=O)N[C@@H](CCC(N)=O)C(=O)N[C@@H](CCCNC(=N)N)C(=O)N[C@@H](Cc1ccc(O)cc1)C(N)=O)[C@@H](C)O [Compound 141, Y-Aib-E-G-T-F-T-S-D-Y-S-I-Aib-L-E-K-Q-A-Q-Aib-A-F-V-R-H-L-I-N-K(1,3)-Aib-T-R-Q-R-Y-NH2.C18DA-gGlu-gGlu-gGlu-gGlu-gGlu-eLys(1,2)]
3 | 9.30 | 9.52 | 5000 µg/mL | – | 8.74 | – | CC[C@H](C)[C@H](NC(=O)[C@H](CC(C)C)NC(=O)[C@H](Cc1c[nH]cn1)NC(=O)[C@H](CCCNC(=N)N)NC(=O)[C@@H](NC(=O)[C@H](Cc1ccccc1)NC(=O)[C@H](CCC(=O)O)NC(=O)C(C)(C)NC(=O)[C@H](CCC(N)=O)NC(=O)[C@H](C)NC(=O)[C@H](CCC(N)=O)NC(=O)[C@H](CCCCN)NC(=O)[C@H](CCC(=O)O)NC(=O)[C@H](CC(C)C)NC(=O)C(C)(C)NC(=O)[C@@H](NC(=O)[C@H](CO)NC(=O)[C@H](Cc1ccc(O)cc1)NC(=O)[C@H](CC(=O)O)NC(=O)[C@H](CO)NC(=O)[C@@H](NC(=O)[C@H](Cc1ccccc1)NC(=O)[C@@H](NC(=O)CNC(=O)[C@H](CCC(=O)O)NC(=O)C(C)(C)NC(=O)[C@@H](N)Cc1ccc(O)cc1)[C@@H](C)O)[C@@H](C)O)[C@@H](C)CC)C(C)C)C(=O)N[C@@H](CC(N)=O)C(=O)N[C@@H](CCCCNC(=O)[C@@H](N)CCCCNC(=O)CC[C@H](NC(=O)CC[C@H](NC(=O)CC[C@H](NC(=O)CC[C@H](NC(=O)CC[C@H](NC(=O)CC[C@H](NC(=O)CCCCCCCCCCCCCCCCC(=O)O)C(=O)O)C(=O)O)C(=O)O)C(=O)O)C(=O)O)C(=O)O)C(=O)NC(C)(C)C(=O)N[C@H](C(=O)N[C@@H](CCCNC(=N)N)C(=O)N[C@@H](CCC(N)=O)C(=O)N[C@@H](CCCNC(=N)N)C(=O)N[C@@H](Cc1ccc(O)cc1)C(N)=O)[C@@H](C)O [Compound 145, Y-Aib-E-G-T-F-T-S-D-Y-S-I-Aib-L-E-K-Q-A-Q-Aib-E-F-V-R-H-L-I-N-K(1,3)-Aib-T-R-Q-R-Y-NH2.C18DA-gGlu-gGlu-gGlu-gGlu-gGlu-gGlu-eLys(1,2)]
4 | 8.15 | 9.10 | – | 5100 µg/mL | – | – | CC[C@H](C)[C@H](NC(=O)[C@H](CC(C)C)NC(=O)[C@H](Cc1c[nH]cn1)NC(=O)[C@H](CCCNC(=N)N)NC(=O)[C@@H](NC(=O)[C@H](Cc1ccccc1)NC(=O)[C@H](C)NC(=O)C(C)(C)NC(=O)[C@H](CCC(N)=O)NC(=O)[C@H](C)NC(=O)[C@H](CCC(N)=O)NC(=O)[C@H](CCCCN)NC(=O)[C@H](CCC(=O)O)NC(=O)[C@H](CC(C)C)NC(=O)C(C)(C)NC(=O)[C@H](C)NC(=O)[C@H](CO)NC(=O)[C@H](Cc1ccc(O)cc1)NC(=O)[C@H](CC(=O)O)NC(=O)[C@H](CO)NC(=O)[C@@H](NC(=O)[C@H](Cc1ccccc1)NC(=O)[C@@H](NC(=O)CNC(=O)[C@H](CCC(=O)O)NC(=O)C(C)(C)NC(=O)[C@@H](N)Cc1ccc(O)cc1)[C@@H](C)O)[C@@H](C)O)C(C)C)C(=O)N[C@@H](CC(N)=O)C(=O)N[C@@H](CCCCNC(=O)[C@@H](N)CCCCNC(=O)CC[C@H](NC(=O)CC[C@H](NC(=O)CC[C@H](NC(=O)CC[C@H](NC(=O)CC[C@H](NC(=O)CC[C@H](NC(=O)CCCCCCCCCCCCCCCCC(=O)O)C(=O)O)C(=O)O)C(=O)O)C(=O)O)C(=O)O)C(=O)O)C(=O)NC(C)(C)C(=O)N[C@H](C(=O)N[C@@H](CCCNC(=N)N)C(=O)N[C@@H](CCC(N)=O)C(=O)N[C@@H](CCCNC(=N)N)C(=O)N[C@@H](Cc1ccc(O)cc1)C(N)=O)[C@@H](C)O [Compound 156, Y-Aib-E-G-T-F-T-S-D-Y-S-A-Aib-L-E-K-Q-A-Q-Aib-A-F-V-R-H-L-I-N-K(1,3)-Aib-T-R-Q-R-Y-NH2.C18DA-gGlu-gGlu-gGlu-gGlu-gGlu-gGlu-eLys(1,2)]
5 | 9.22 | 9.30 | 3200 µg/mL | – | – | 7.84 | CC[C@H](C)[C@H](NC(=O)[C@H](CC(C)C)NC(=O)[C@H](Cc1c[nH]cn1)NC(=O)[C@H](CCCNC(=N)N)NC(=O)[C@@H](NC(=O)[C@H](Cc1ccccc1)NC(=O)[C@H](C)NC(=O)C(C)(C)NC(=O)[C@H](CCC(N)=O)NC(=O)[C@H](C)NC(=O)[C@H](CCC(N)=O)NC(=O)[C@H](CCCCN)NC(=O)[C@H](CCC(=O)O)NC(=O)[C@H](CC(C)C)NC(=O)C(C)(C)NC(=O)[C@@H](NC(=O)[C@H](CO)NC(=O)[C@H](Cc1ccc(O)cc1)NC(=O)[C@H](CC(=O)O)NC(=O)[C@H](CO)NC(=O)[C@@H](NC(=O)[C@H](Cc1ccccc1)NC(=O)[C@@H](NC(=O)CNC(=O)[C@H](CCC(=O)O)NC(=O)C(C)(C)NC(=O)[C@@H](N)Cc1ccc(O)cc1)[C@@H](C)O)[C@@H](C)O)[C@@H](C)CC)C(C)C)C(=O)N[C@@H](CC(N)=O)C(=O)N[C@@H](CCCCNC(=O)CC[C@H](NC(=O)CC[C@H](NC(=O)CC[C@H](NC(=O)CC[C@H](NC(=O)CC[C@H](NC(=O)CCCCCCCCCCCCCCCCC(=O)O)C(=O)O)C(=O)O)C(=O)O)C(=O)O)C(=O)O)C(=O)N[C@@H](CC(C)C)C(=O)N[C@H](C(=O)N[C@@H](CCCNC(=N)N)C(=O)N[C@@H](CCC(N)=O)C(=O)N[C@@H](CCCNC(=N)N)C(=O)N[C@@H](Cc1ccc(O)cc1)C(N)=O)[C@@H](C)O [Compound 158, Y-Aib-E-G-T-F-T-S-D-Y-S-I-Aib-L-E-K-Q-A-Q-Aib-A-F-V-R-H-L-I-N-K(1,3)-L-T-R-Q-R-Y-NH2.C18DA-gGlu-gGlu-gGlu-gGlu-gGlu(1,2)]

From US20250382344A1, “Soluble GLP1/GIP/NPY2 Receptor Triple Agonists” (Boehringer Ingelheim International GmH, priority 2024, published 2025)
